From the kinase profiling compilation of Christmann-Franck et al. (2016)

Assays:
[1] = molecular target: AKT1 (human) (UniProt P31749); conditions: compound 10.0 µM
[2] = molecular target: FGFR1 (human) (UniProt P11362); conditions: compound 10.0 µM
[3] = molecular target: PIM1 (human) (UniProt P11309); conditions: compound 10.0 µM
[4] = molecular target: PRKAA1 (human) (UniProt Q13131); conditions: compound 10.0 µM
[5] = molecular target: PRKAA2 (human) (UniProt P54646); conditions: compound 10.0 µM
[6] = tested on: PRKACA (mouse); conditions: compound 10.0 µM; accession and sequence are those of the human protein

FGFR1 (human), sequence (P11362 whole entry, looked up): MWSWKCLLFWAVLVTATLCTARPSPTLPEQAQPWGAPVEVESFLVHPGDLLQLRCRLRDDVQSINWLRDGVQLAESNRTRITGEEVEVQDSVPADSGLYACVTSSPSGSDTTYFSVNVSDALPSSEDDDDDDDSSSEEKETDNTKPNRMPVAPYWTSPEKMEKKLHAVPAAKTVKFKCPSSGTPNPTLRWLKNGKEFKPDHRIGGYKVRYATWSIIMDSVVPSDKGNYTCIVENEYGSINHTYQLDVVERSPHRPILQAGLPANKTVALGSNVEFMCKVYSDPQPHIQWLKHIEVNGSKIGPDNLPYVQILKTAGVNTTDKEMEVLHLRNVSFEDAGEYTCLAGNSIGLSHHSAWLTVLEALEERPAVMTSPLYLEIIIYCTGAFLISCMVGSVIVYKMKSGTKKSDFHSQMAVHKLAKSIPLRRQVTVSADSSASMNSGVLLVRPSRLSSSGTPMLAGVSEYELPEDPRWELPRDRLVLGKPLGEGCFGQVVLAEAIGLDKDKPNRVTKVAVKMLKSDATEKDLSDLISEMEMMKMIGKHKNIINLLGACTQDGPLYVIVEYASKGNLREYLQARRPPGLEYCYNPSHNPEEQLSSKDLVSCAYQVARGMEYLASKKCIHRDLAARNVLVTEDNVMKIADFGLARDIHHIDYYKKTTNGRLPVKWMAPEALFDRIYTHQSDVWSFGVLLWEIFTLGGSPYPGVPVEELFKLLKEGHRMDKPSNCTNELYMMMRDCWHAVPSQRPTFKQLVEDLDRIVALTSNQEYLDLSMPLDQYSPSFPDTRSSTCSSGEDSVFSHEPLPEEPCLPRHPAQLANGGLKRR
AKT1 (human), sequence (P31749 whole entry, looked up): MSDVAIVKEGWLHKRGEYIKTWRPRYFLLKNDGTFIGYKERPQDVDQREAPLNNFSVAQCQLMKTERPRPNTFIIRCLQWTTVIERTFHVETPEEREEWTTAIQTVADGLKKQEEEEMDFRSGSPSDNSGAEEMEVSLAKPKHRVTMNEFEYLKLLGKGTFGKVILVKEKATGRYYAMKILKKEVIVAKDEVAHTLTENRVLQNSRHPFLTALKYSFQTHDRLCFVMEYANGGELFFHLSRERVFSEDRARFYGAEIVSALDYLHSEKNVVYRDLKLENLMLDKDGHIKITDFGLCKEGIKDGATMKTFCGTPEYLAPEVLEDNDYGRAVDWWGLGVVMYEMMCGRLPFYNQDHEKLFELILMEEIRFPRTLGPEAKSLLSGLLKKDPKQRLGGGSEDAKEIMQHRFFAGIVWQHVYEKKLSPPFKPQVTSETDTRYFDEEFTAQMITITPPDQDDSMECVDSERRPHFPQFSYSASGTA
PRKAA2 (human), sequence (P54646 whole entry, looked up): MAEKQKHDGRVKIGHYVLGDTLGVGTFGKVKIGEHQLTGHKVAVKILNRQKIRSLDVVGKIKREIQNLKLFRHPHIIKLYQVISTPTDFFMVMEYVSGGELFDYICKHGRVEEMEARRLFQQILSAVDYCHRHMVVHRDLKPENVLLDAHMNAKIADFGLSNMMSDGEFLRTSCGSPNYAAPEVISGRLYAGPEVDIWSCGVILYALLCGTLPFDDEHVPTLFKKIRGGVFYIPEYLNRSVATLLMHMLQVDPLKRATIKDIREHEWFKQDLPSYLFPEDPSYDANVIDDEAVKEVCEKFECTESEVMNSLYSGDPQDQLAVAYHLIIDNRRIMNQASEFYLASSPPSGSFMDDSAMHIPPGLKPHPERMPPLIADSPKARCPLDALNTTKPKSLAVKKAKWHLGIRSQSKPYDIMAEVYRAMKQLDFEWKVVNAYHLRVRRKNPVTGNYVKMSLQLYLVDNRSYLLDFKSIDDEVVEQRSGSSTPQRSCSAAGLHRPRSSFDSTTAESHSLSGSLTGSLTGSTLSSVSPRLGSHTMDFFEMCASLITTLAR
PRKAA1 (human), sequence (Q13131 whole entry, looked up): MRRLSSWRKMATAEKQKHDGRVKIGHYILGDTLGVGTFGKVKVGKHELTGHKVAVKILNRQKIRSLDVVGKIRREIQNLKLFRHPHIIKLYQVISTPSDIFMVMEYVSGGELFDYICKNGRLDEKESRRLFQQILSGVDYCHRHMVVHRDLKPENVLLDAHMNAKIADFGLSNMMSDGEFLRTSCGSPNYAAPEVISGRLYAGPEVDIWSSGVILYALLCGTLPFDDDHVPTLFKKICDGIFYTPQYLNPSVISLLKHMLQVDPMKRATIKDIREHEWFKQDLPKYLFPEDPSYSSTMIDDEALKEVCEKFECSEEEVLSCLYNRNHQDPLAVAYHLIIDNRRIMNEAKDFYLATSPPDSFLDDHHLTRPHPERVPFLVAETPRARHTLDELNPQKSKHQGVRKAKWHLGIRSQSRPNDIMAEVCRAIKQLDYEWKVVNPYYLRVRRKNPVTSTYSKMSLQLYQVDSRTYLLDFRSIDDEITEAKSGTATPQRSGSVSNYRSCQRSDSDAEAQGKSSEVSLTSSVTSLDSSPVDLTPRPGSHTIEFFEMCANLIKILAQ
PIM1 (human), sequence (P11309 whole entry, looked up): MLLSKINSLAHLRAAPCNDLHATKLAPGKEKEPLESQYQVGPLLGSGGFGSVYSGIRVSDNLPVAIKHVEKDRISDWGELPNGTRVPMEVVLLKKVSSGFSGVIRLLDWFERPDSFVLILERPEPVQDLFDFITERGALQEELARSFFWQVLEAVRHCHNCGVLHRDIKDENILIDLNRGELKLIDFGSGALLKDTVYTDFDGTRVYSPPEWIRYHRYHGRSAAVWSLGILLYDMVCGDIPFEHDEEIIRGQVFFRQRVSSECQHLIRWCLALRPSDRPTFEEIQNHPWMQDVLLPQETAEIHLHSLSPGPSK

N#C/C(=C\c1ccc(O)c(O)c1)C(=O)NCc1ccccc1
inhibition [1]: 0% | inhibition [2]: 0% | inhibition [3]: 0% | inhibition [4]: 0% | inhibition [5]: 0% | inhibition [6]: 3%

CC1=C(O)C(=O)[C@@H]2OC2C1=O (stereo not given in full)
inhibition [1]: 0% | inhibition [2]: 3% | inhibition [3]: 5% | inhibition [4]: 0% | inhibition [5]: 0% | inhibition [6]: 0%

CCN(CC)CCCCN1c2ccccc2Oc2ccc(Cl)cc21
inhibition [1]: 0% | inhibition [2]: 0% | inhibition [4]: 0% | inhibition [5]: 0% | inhibition [6]: 0%

O=c1cc(N2CCOCC2)nc2c3ccccc3ccn12
inhibition [1]: 0% | inhibition [2]: 0% | inhibition [3]: 34% | inhibition [4]: 7% | inhibition [5]: 7% | inhibition [6]: 0%

O=C1NC(=O)C(c2ccccc2[N+](=O)[O-])=C1Nc1ccc(O)c(Cl)c1
inhibition [1]: 0% | inhibition [2]: 9% | inhibition [3]: 0% | inhibition [4]: 2% | inhibition [5]: 13% | inhibition [6]: 0%

O=C1NC(=O)c2cc(Nc3ccc(F)cc3)c(Nc3ccc(F)cc3)cc21
inhibition [1]: 15% | inhibition [2]: 19% | inhibition [3]: 60% | inhibition [4]: 0% | inhibition [5]: 0% | inhibition [6]: 13%

NC(=O)Nc1sc(-c2ccc(F)cc2)cc1C(N)=O
inhibition [1]: 0% | inhibition [2]: 50% | inhibition [3]: 8% | inhibition [4]: 8% | inhibition [5]: 10% | inhibition [6]: 4%

Nc1ncnc2[nH]nc(Nc3ccc(F)cc3)c12
inhibition [1]: 3% | inhibition [2]: 11% | inhibition [3]: 28% | inhibition [4]: 0% | inhibition [5]: 0% | inhibition [6]: 9%

COc1cc2ncnc(Nc3ccc(Cl)cc3F)c2cc1OC
inhibition [1]: 0% | inhibition [2]: 7% | inhibition [3]: 0% | inhibition [4]: 2% | inhibition [5]: 8% | inhibition [6]: 2%

CC(C)[C@H](CO)Nc1nc(Nc2cc(N)cc(Cl)c2)c2ncn(C(C)C)c2n1
inhibition [1]: 0% | inhibition [3]: 6% | inhibition [4]: 5% | inhibition [5]: 3% | inhibition [6]: 13%

Cc1cc(I)ccc1Nc1c(C(=O)NOCC2CC2)cc(F)c(F)c1F
inhibition [1]: 0% | inhibition [2]: 3% | inhibition [3]: 0% | inhibition [4]: 0% | inhibition [5]: 0% | inhibition [6]: 0%

N#CC(=C(\N)Sc1ccccc1N)/C(C#N)=C(/N)Sc1ccccc1N
inhibition [1]: 0% | inhibition [2]: 0% | inhibition [3]: 0% | inhibition [4]: 0% | inhibition [5]: 0% | inhibition [6]: 0%

CS(=O)c1ccc(-c2nc(-c3ccc(F)cc3)c(-c3ccncc3)[nH]2)cc1 (stereo not given)
inhibition [1]: 11% | inhibition [2]: 11% | inhibition [3]: 3% | inhibition [4]: 0% | inhibition [5]: 1% | inhibition [6]: 0%

NC(=O)c1ccc(-c2nc(-c3ccccn3)c(-c3ccc4c(c3)OCO4)[nH]2)cc1
inhibition [1]: 1% | inhibition [2]: 8% | inhibition [3]: 5% | inhibition [4]: 0% | inhibition [5]: 0% | inhibition [6]: 0%

COc1cc2ncn(-c3cc(OCc4ccccc4C(F)(F)F)c(C(N)=O)s3)c2cc1OC
inhibition [1]: 12% | inhibition [2]: 57% | inhibition [3]: 31% | inhibition [4]: 7% | inhibition [5]: 7% | inhibition [6]: 14%

COc1cc2c(Nc3ccc(NC(=O)c4ccccc4)cc3)ncnc2cc1OCCCN1CCOCC1
inhibition [1]: 9% | inhibition [2]: 15% | inhibition [3]: 8% | inhibition [4]: 0% | inhibition [5]: 0% | inhibition [6]: 7%

COc1ccc(C(=O)Nc2sc3c(c2C(N)=O)CCCC3)cc1OC
inhibition [1]: 0% | inhibition [2]: 9% | inhibition [3]: 0% | inhibition [4]: 9% | inhibition [5]: 0% | inhibition [6]: 12%

CC(C)[C@H](CO)Nc1nc(Nc2ccc(C(=O)O)c(Cl)c2)c2ncn(C(C)C)c2n1
inhibition [1]: 0% | inhibition [2]: 59% | inhibition [3]: 10% | inhibition [4]: 0% | inhibition [5]: 0% | inhibition [6]: 21%

Oc1ccc(-c2nc(-c3ccc(F)cc3)c(-c3ccncc3)[nH]2)cc1
inhibition [1]: 5% | inhibition [2]: 0% | inhibition [3]: 9% | inhibition [4]: 0% | inhibition [5]: 0% | inhibition [6]: 11%

CC(C)N(CCC(=O)c1ccc2ccccc2c1)Cc1ccccc1
inhibition [1]: 0% | inhibition [2]: 0% | inhibition [3]: 0% | inhibition [4]: 0% | inhibition [5]: 0% | inhibition [6]: 1%

CO[C@@H]1[C@H](N(C)C(=O)c2ccccc2)C[C@H]2O[C@]1(C)n1c3ccccc3c3c4c(c5c6ccccc6n2c5c31)C(=O)NC4
inhibition [1]: 55% | inhibition [3]: 73% | inhibition [4]: 64% | inhibition [6]: 63%

Cn1cc(/C=C2/C(=O)Nc3cccnc32)c2ccccc21
inhibition [1]: 0% | inhibition [2]: 26% | inhibition [3]: 0% | inhibition [4]: 32% | inhibition [5]: 22% | inhibition [6]: 0%

Cc1cc(F)c(Nc2ncnc3cc(OCc4ccccc4)ccc23)cc1O
inhibition [1]: 0% | inhibition [2]: 10% | inhibition [3]: 1% | inhibition [4]: 13% | inhibition [5]: 0% | inhibition [6]: 2%

O=S(=O)(c1cccc2cnccc12)N1CCCNCC1
inhibition [1]: 0% | inhibition [2]: 4% | inhibition [3]: 4% | inhibition [4]: 0% | inhibition [5]: 0%

COc1cc(CC2C(=O)OC[C@@H]2Cc2ccc(OC)c(OC)c2)ccc1O (stereo not given in full)
inhibition [1]: 0% | inhibition [2]: 0% | inhibition [3]: 0% | inhibition [4]: 0% | inhibition [5]: 2% | inhibition [6]: 0%

Fc1ccc(Cl)cc1-c1nc(Nc2ccncc2)c2nccnc2n1
inhibition [1]: 39% | inhibition [2]: 37% | inhibition [3]: 50% | inhibition [4]: 7% | inhibition [5]: 32% | inhibition [6]: 21%

CN1CC[C@H](c2c(O)cc(O)c3c(=O)cc(-c4ccccc4Cl)oc23)[C@H](O)C1
inhibition [1]: 1% | inhibition [2]: 0% | inhibition [3]: 52% | inhibition [4]: 0% | inhibition [5]: 1% | inhibition [6]: 5%

O=S(=O)(c1cccc2c(O)nccc12)N1CCCNCC1
inhibition [1]: 0% | inhibition [3]: 19% | inhibition [4]: 0% | inhibition [5]: 0% | inhibition [6]: 19%

CC[C@@H](CO)Nc1nc(NCc2ccccc2)c2ncn(C(C)C)c2n1
inhibition [1]: 0% | inhibition [2]: 5% | inhibition [3]: 0% | inhibition [4]: 0% | inhibition [5]: 12% | inhibition [6]: 0%

COc1ccc(Cl)cc1NC(=O)Nc1cc(C)nc2ccccc12
inhibition [1]: 0% | inhibition [2]: 7% | inhibition [3]: 14% | inhibition [4]: 0% | inhibition [5]: 0% | inhibition [6]: 5%

Cn1cc(C2=C(c3ccc(Cl)cc3Cl)C(=O)NC2=O)c2ccccc21
inhibition [1]: 3% | inhibition [2]: 12% | inhibition [3]: 32% | inhibition [4]: 0% | inhibition [5]: 5% | inhibition [6]: 5%

O=C(Nc1cc(C(F)(F)F)cc(C(F)(F)F)c1)c1cc(Cl)ccc1O
inhibition [1]: 0% | inhibition [2]: 0% | inhibition [3]: 0% | inhibition [4]: 0% | inhibition [5]: 1% | inhibition [6]: 0%

Cc1ccc(-c2nn(C(C)(C)C)c3ncnc(N)c23)cc1
inhibition [1]: 2% | inhibition [2]: 58% | inhibition [3]: 0% | inhibition [4]: 0% | inhibition [5]: 0% | inhibition [6]: 19%

N#C/C(=C(/N)Sc1ccc(N)cc1)c1ccccc1C(F)(F)F
inhibition [1]: 0% | inhibition [2]: 0% | inhibition [3]: 5% | inhibition [4]: 0% | inhibition [5]: 0% | inhibition [6]: 2%

CC(C)(C)n1nc(-c2ccc(Cl)cc2)c2c(N)ncnc21
inhibition [1]: 0% | inhibition [2]: 43% | inhibition [3]: 4% | inhibition [4]: 0% | inhibition [5]: 0% | inhibition [6]: 30%

C=CC(=O)c1ccc2ccccc2c1
inhibition [1]: 0% | inhibition [2]: 0% | inhibition [3]: 0% | inhibition [4]: 0% | inhibition [5]: 0% | inhibition [6]: 0%

CC(C)(C)n1nc(-c2cccc3ccccc23)c2c(N)ncnc21
inhibition [1]: 18% | inhibition [2]: 60% | inhibition [3]: 9% | inhibition [4]: 1% | inhibition [5]: 1% | inhibition [6]: 32%

Cc1cc2nc3c(=O)[nH]c(=O)nc-3n(C)c2cc1C=O
inhibition [1]: 24% | inhibition [2]: 22% | inhibition [3]: 23% | inhibition [4]: 0% | inhibition [5]: 0% | inhibition [6]: 11%

O=S(=O)(c1cccc2c(Cl)cccc12)N1CCCNCC1
inhibition [1]: 2% | inhibition [2]: 1% | inhibition [3]: 31% | inhibition [4]: 0% | inhibition [5]: 0% | inhibition [6]: 3%

COc1nccc(-c2c(-c3ccc(F)cc3)ncn2[C@H]2CC[C@H](O)CC2)n1
inhibition [1]: 0% | inhibition [2]: 0% | inhibition [3]: 0% | inhibition [4]: 0% | inhibition [5]: 0% | inhibition [6]: 0%

COc1cc2nccc(Oc3ccc(NC(=O)Nc4ccc(F)cc4F)c(F)c3)c2cc1OC
inhibition [1]: 6% | inhibition [2]: 68% | inhibition [3]: 12% | inhibition [4]: 0% | inhibition [5]: 0% | inhibition [6]: 16%

O=S(=O)(NCCNC/C=C/c1ccc(Br)cc1)c1cccc2cnccc12
inhibition [1]: 21% | inhibition [2]: 14% | inhibition [3]: 0% | inhibition [4]: 17% | inhibition [5]: 22%

CN(C)CCCn1cc(C2=C(c3c[nH]c4ccccc34)C(=O)NC2=O)c2ccccc21
inhibition [1]: 5% | inhibition [2]: 50% | inhibition [4]: 11% | inhibition [5]: 20% | inhibition [6]: 26%
